Values after ≈ are worked out from the molar mass of the structure shown. Active and inactive are the calls of the source. The rule behind the calls is not given here.
Key:
[1] = AUC in New Zealand rabbit osteomyelitis model at 40 mg/kg, sc administered every 6 hrs for 4 days; assay type: ADME, organism-based, Oryctolagus cuniculus; design: dose 40 mg/kg, route subcutaneous; conditions: in vivo
Oryctolagus cuniculus [2] = assay: Toxicity in methicillin-resistant Staphylococcus aureus-infected New Zealand rabbit osteomyelitis model assessed as body weight at 60 mg/kg, po administered every 8 hrs for 4 weeks measured on week 2 postinfection (reference value: 2.43 +/- 0.15 kg); conditions: in vivo
Staphylococcus aureus [3] = assay: Antimicrobial activity against Staphylococcus aureus 168-1 isolated from osteomyelitis patient by broth macrodilution method; assay type: functional
[4] = AUC in methicillin-resistant Staphylococcus aureus-infected New Zealand rabbit osteomyelitis model at 60 mg/kg, po after 24 hrs; assay type: ADME, organism-based, Oryctolagus cuniculus; design: time < 24 hr, dose 60 mg/kg, route oral; conditions: in vivo
[5] = Cmax in New Zealand rabbit osteomyelitis model at 40 mg/kg, sc administered every 6 hrs for 4 days; assay type: ADME, organism-based, Oryctolagus cuniculus; design: dose 40 mg/kg, route subcutaneous; conditions: in vivo
Staphylococcus aureus [6] = assay: (§1) Antimicrobial activity against methicillin-resistant Staphylococcus aureus infected in New Zealand rabbit osteomyelitis model assessed as bacterial count per gram of tibial marrow at 60 mg/kg, po administered every 8 hrs for 4 weeks measured on week 8 postinfection (reference value: 1.04 +/- 2.63 CFU/g); assay type: functional, organism-based; design: dose 60 mg/kg
Staphylococcus aureus [7] = assay: Antimicrobial activity against methicillin-resistant Staphylococcus aureus infected in New Zealand rabbit osteomyelitis model assessed as improvement in rate of bone reconstruction at 60 mg/kg, po administered every 8 hrs for 4 weeks measured on week 6 postinfection radiographic analysis; assay type: functional, organism-based; design: dose 60 mg/kg
Oryctolagus cuniculus [8] = assay: Cmin in New Zealand rabbit at 20 mg/kg, sc administered every 6 hrs for 4 days measured after 1 hr post first dose by RP-HPLC/MS/MS; assay type: ADME, organism-based; design: dose 20 mg/kg, route subcutaneous; conditions: in vivo, 1 h
Staphylococcus aureus [9] = assay: Antimicrobial activity against methicillin-resistant Staphylococcus aureus infected in New Zealand rabbit osteomyelitis model assessed as improvement in extent of bone remodeling at 60 mg/kg, po administered every 8 hrs for 4 weeks measured on week 2 postinfection radiographic analysis; assay type: functional, organism-based; design: dose 60 mg/kg
Staphylococcus aureus [10] = assay: Antimicrobial activity against methicillin-resistant Staphylococcus aureus infected in New Zealand rabbit osteomyelitis model assessed as improvement in rate of bone reconstruction at 60 mg/kg, po administered every 8 hrs for 4 weeks measured on week 8 postinfection radiographic analysis; assay type: functional, organism-based; design: dose 60 mg/kg
Staphylococcus aureus [11] = assay: as §1, with “matrix” for “marrow”; assay type: functional, organism-based; design: dose 60 mg/kg
Oryctolagus cuniculus [12] = assay: Toxicity in methicillin-resistant Staphylococcus aureus-infected New Zealand rabbit osteomyelitis model assessed as body weight at 60 mg/kg, po administered every 8 hrs for 4 weeks measured on week 6 postinfection (reference value: 2.43 +/- 0.15 kg); conditions: in vivo
Oryctolagus cuniculus [13] = assay: Toxicity in methicillin-resistant Staphylococcus aureus-infected New Zealand rabbit osteomyelitis model assessed as body weight at 60 mg/kg, po administered every 8 hrs for 4 weeks measured on week 4 postinfection (reference value: 2.43 +/- 0.15 kg); conditions: in vivo
Staphylococcus aureus [14] = assay: Antimicrobial activity against methicillin-resistant Staphylococcus aureus infected in New Zealand rabbit osteomyelitis model assessed as improvement in extent of bone remodeling at 60 mg/kg, po administered every 8 hrs for 4 weeks measured on week 8 postinfection radiographic analysis; assay type: functional, organism-based; design: dose 60 mg/kg
Oryctolagus cuniculus [15] = assay: Toxicity in methicillin-resistant Staphylococcus aureus-infected New Zealand rabbit osteomyelitis model assessed as body weight at 60 mg/kg, po administered every 8 hrs for 4 weeks measured on week 8 postinfection (reference value: 2.43 +/- 0.15 kg); conditions: in vivo
Staphylococcus aureus [16] = assay: Antimicrobial activity against methicillin-resistant Staphylococcus aureus infected in New Zealand rabbit osteomyelitis model assessed as improvement in extent of bone remodeling at 60 mg/kg, po administered every 8 hrs for 4 weeks measured on week 6 postinfection radiographic analysis; assay type: functional, organism-based; design: dose 60 mg/kg
Staphylococcus aureus [17] = assay: as §1, with “tibial matrix” for “tibial marrow”, “at 30” for “at 60”, “mg/kg, sc” for “mg/kg, po”, “every 12” for “every 8”; assay type: functional; conditions: route subcutaneous
Staphylococcus aureus [18] = assay: Antimicrobial activity against methicillin-resistant Staphylococcus aureus infected in New Zealand rabbit osteomyelitis model assessed as improvement in extent of bone remodeling at 30 mg/kg, sc administered every 12 hrs for 4 weeks measured on week 2 postinfection radiographic analysis; assay type: functional, organism-based; design: dose 30 mg/kg
[19] = Ratio of AUC to MIC in methicillin-resistant Staphylococcus aureus infected New Zealand rabbit model osteomyelitis at 30 mg/kg, sc administered every 12 hrs for 4 weeks; assay type: functional; conditions: route subcutaneous
Staphylococcus aureus [20] = assay: Antimicrobial activity against methicillin-resistant Staphylococcus aureus infected in New Zealand rabbit osteomyelitis model assessed as improvement in rate of bone reconstruction at 30 mg/kg, sc administered every 12 hrs for 4 weeks measured on week 6 postinfection radiographic analysis; assay type: functional, organism-based; design: dose 30 mg/kg
Staphylococcus aureus [21] = assay: as §1, with “at 30” for “at 60”, “mg/kg, sc” for “mg/kg, po”, “every 12” for “every 8”, “value: 1.12” for “value: 1.04”, “+/- 10^9” for “+/- 2.63”; assay type: functional; conditions: route subcutaneous
Staphylococcus aureus [22] = assay: Antimicrobial activity against methicillin-resistant Staphylococcus aureus infected in New Zealand rabbit osteomyelitis model assessed as improvement in rate of bone reconstruction at 30 mg/kg, sc administered every 12 hrs for 4 weeks measured on week 2 postinfection radiographic analysis; assay type: functional, organism-based; design: dose 30 mg/kg
Staphylococcus aureus [23] = assay: Antimicrobial activity against methicillin-resistant Staphylococcus aureus infected in New Zealand rabbit osteomyelitis model assessed as improvement in rate of bone reconstruction at 30 mg/kg, sc administered every 12 hrs for 4 weeks measured on week 8 postinfection radiographic analysis; assay type: functional, organism-based; design: dose 30 mg/kg
Staphylococcus aureus [24] = assay: Antimicrobial activity against methicillin-resistant Staphylococcus aureus infected in New Zealand rabbit osteomyelitis model assessed as improvement in extent of bone remodeling at 30 mg/kg, sc administered every 12 hrs for 4 weeks measured on week 6 postinfection radiographic analysis; assay type: functional, organism-based; design: dose 30 mg/kg

SMILES: CC(=O)NC[C@H]1CN(c2ccc(N3CCOCC3)c(F)c2)C(=O)O1 [LINEZOLID]
- AUC [1]: 173 µg·h/mL
- Activity (Oryctolagus cuniculus [2]): 2.35 kg
- MBC (Staphylococcus aureus [3]): 12.5 µg/mL (≈ 37.1 µM)
- MIC (Staphylococcus aureus [3]): 1.56 µg/mL (≈ 4.62 µM)
- AUC at 24 h [4]: 334 µg·h/mL
- Cmax [5]: 27200 ng/mL
- Activity (Staphylococcus aureus [6]): Active
- Activity (Staphylococcus aureus [7]): Active
- CFU (Oryctolagus cuniculus [8]): 0.18 ×10⁷ /g
- Activity (Staphylococcus aureus [9]): Active
- Activity (Staphylococcus aureus [10]): Active
- Activity (Staphylococcus aureus [11]): Active
- Activity (Oryctolagus cuniculus [12]): 2.36 kg
- Activity (Oryctolagus cuniculus [13]): 2.44 kg
- Activity (Staphylococcus aureus [14]): Active
- Activity (Oryctolagus cuniculus [15]): 2.42 kg
- Activity (Staphylococcus aureus [16]): Active

SMILES: CN[C@H](CC(C)C)C(=O)N[C@H]1C(=O)N[C@@H](CC(N)=O)C(=O)N[C@H]2C(=O)N[C@H]3C(=O)N[C@H](C(=O)N[C@H](C(=O)O)c4cc(O)cc(O)c4-c4cc3ccc4O)[C@H](O)c3ccc(c(Cl)c3)Oc3cc2cc(c3O[C@@H]2O[C@H](CO)[C@@H](O)[C@H](O)[C@H]2O[C@H]2C[C@](C)(N)[C@H](O)[C@H](C)O2)Oc2ccc(cc2Cl)[C@H]1O [VANCOMYCIN]
- AUC [1]: 58 µg·h/mL
- MBC (Staphylococcus aureus [3]): 6.25 µg/mL (≈ 4.31 µM)
- MIC (Staphylococcus aureus [3]): 0.78 µg/mL (≈ 0.538 µM)
- CFU (Staphylococcus aureus [17]): 0.84 ×10⁷ /g
- Activity (Staphylococcus aureus [18]): Active
- Cmax [5]: 6400 ng/mL
- RatioAUC/MIC [19]: 148
- Activity (Staphylococcus aureus [20]): Active
- CFU (Staphylococcus aureus [21]): 0.64 ×10⁹ /g
- Activity (Staphylococcus aureus [22]): Active
- Activity (Staphylococcus aureus [23]): Active
- Activity (Staphylococcus aureus [24]): Active

From ChEMBL document CHEMBL1255345, “Efficacies of ceftobiprole medocaril and comparators in a rabbit model of osteomyelitis due to methicillin-resistant Staphylococcus aureus” (Antimicrob Agents Chemother, 2008)
